Experimental data reported in PMC7849011, “Defining the Antimalarial Activity of Cipargamin in Healthy Volunteers Experimentally Infected with Blood-Stage Plasmodium falciparum” (Antimicrobial Agents and Chemotherapy, 2021).
In brackets after ≈: the same amount, converted by molar mass. Entries after “also recorded” stand apart in the source; their conditions may differ. Read-outs that look alike come from different tables or passages of the source.

What was measured:
[1] = Population PK model (two-compartment); format: in vivo, human
Description: Data preparation, exploration, model definition, model evaluation and simulations were performed in R (version 3.5.1) and the R package IQRtools (version 1.0.6; IntiQuan, Basel, Switzerland) within the software package MonolixSuite 2018R2 (Lixoft, Antony, France). The MIC and the minimum parasiticidal concentration that achieves 90% of maximum effect (MPC90) were derived from the PK/PD model. Simulations were performed to predict the minimum effective single dose, defined as the dose that clears 10^9 parasites/ml. Further detail on PK/PD modeling methods is presented in Text S1.
Pharmacokinetic/Pharmacodynamic modelling methods and results […]
The objectives of the PK/PD modelling anal ysis w ere:
1. To develop a population PK model of cipar gamin in healthy subjects inoculated with blood stage P. falciparum .
2. To char acterize the PK/PD relationship between cipargamin pharmacokinetics and parasite cl ear ance in h eal th subjects inoculated with blood stage P. falcipar um .
3. To determine the minimum inhibitory concent ration (M IC ) of cipargamin .
4. To establish the minimum effective cipar gamin single dose required to kill 10 9
Data preparation, exploration, model definition, model evaluation and simulations were performed in R (version 3.5.1) and the R package IQRtools (version 1.0.6, IntiQuan GmbH, Basel, Switzerland) withi n the software package MonolixSuite2018R2 (Li xoft, Anton y, Fran ce) which implemen ts stochastic approx imation ex pectation-maximisation (SAEM) algorithm for parameter estimation.
One-, two- and three-compartment with different absorption and elimination models were tested. Zero- and first-order absorption models wi th or without lag time were examined. Data below the lower limit of quantitation ( LLO Q; 0.001 µg/ m L) were treated using a left - censoring method. Between subject vari abilit y ( BSV) of the PK parameters was assumed to be normally distributed on log -scale. The random effects across the par ameters within an individual were modelled according to a multivari ate normal distribution (MVN). BS V w as […]
supported by the data.The residual unexplained variabilit y (RUV) was tested using a proportional or combined error models.
Population PK/PD modelling
A sequential PK/PD modelling approach was used in which the empirical Bayes estimates of individual PK parameters were us ed as r egression parameters for the PK/P D model. The observations below the limit of detection (LOD; 10 parasites/mL) were mo del led using a l eft-censoring method. In this anal ysis, the changes in parasitemia over time in the presen ce of antimalarial dru g are ass umed to be a result of the differen ce b etween p ar asite growth rate (k grow ) and the r ate at wh ich parasites are killed b y the drug (k k ill ) with a baseline parasitemia (P L base ) at time t 0 (time of inoculation). Diff erent structural PK/PD models were tested to assess the relationship of cipar gamin plasma concentration on the parasite ki lling rate. The E max model assumed a direct effect of cipargamin plasma concent rations on parasite killing.
The turnover model assumed an indirect effect of cipargamin plasma concentrations on parasite killing due to lag in the PD processes (i.e. the kinetics of dru g-receptor binding). The effect compartment mod el assumed an indirect ef fect of cipar gamin plasm a concentration on parasite killing due to biophase equilibration. […]

[2] = test system: P. falciparum female gametocytes; test: Gametocytemia by pfs25 qRT-PCR; format: in vivo, Plasmodium falciparum
Description: A single oral dose of 960 mg piperaquine (PCI Pharma Services, United Kingdom) was administered to subjects in response to parasite regrowth. The purpose of piperaquine treatment was to clear asexual parasites without clearing any gametocytes that may be present. This would allow the gametocytocidal activity of a second dose of cipargamin to be investigated, as well as the transmission of gametocytes to mosquitoes. Gametocytemia was monitored using quantitative reverse transcriptase PCR (qRT-PCR) targeting pfs25 mRNA, a transcript preferentially expressed in mature female gametocytes ([26]). Transcripts per milliliter of blood were converted to female gametocytes per milliliter of blood using a standard curve ([29]). All participants were to receive compulsory rescue treatment with artemether-lumefantrine ([…]; Novartis Pharmaceuticals Pty. Ltd., Macquarie Park, Australia), as well as a single 45-mg dose of primaquine ([…] Group, Sydney, Australia) to clear gametocytes, 21 days after cipargamin dosing or earlier if a second round of parasite regrowth occurred following piperaquine treatment. To monitor total parasitemia, blood samples were collected for 18S rRNA qPCR before inoculation, on day 3, twice daily on days 4 to 6, pretreatment on day 7, and 4, 8, 12, 16, 24, 30, and 36 h posttreatment, twice daily from day 9 to day 11, and every 1 to 3 days until day 35. Blood samples for gametocytemia measurements were collected on day 11, every 1 to 3 days between day 15 and day 29, and on day 35. […] Analyses were performed in R version 3.3.0. The PRR and parasite clearance half-life were estimated using the slope of the optimal fit for the log-linear relationship of the parasitemia decay as described previously ([27]).

[3] = test system: P. falciparum gametocytes; test: Direct membrane feeding assay (DMFA), transmission to Anopheles stephensi mosquitoes; format: in vivo, Plasmodium falciparum; settings: blood collected 20 days after cipargamin dosing
Description: The transmission of parasites from subjects to female Anopheles stephensi mosquitoes was measured using a direct membrane feeding assay (DMFA) as previously described ([23]). Briefly, ∼100 mosquitoes (3 to 7 days old) were allowed to feed on a water-jacketed membrane feeder filled with venous blood collected 20 days after cipargamin dosing into lithium heparin anticoagulant tubes. Seven to 9 days after blood feeding, mosquitoes were dissected to detect oocysts in midgut preparations using qPCR targeting the gene encoding 18S rRNA.

[4] = test system: P. falciparum; settings: cited from earlier work
[5] = test system: P. vivax; set-up: method as in PMID 25075833; settings: 30 mg per day for 3 days, P. vivax malaria patients; cited from earlier work

## C[C@H]1Cc2c([nH]c3cc(Cl)c(F)cc23)[C@@]2(N1)C(=O)Nc1ccc(Cl)cc12 [cipargamin]
[1]; final population PK model
  CL/F, estimate (RSE %): 5.5 (10.7) L/h
  Vc/F, estimate (RSE %): 64.4 (8.9) L
[1]; human, in vivo
  Q1/F, estimate (RSE %): 12.9 (9.0) L/h
  Vp1/F, estimate (RSE %): 107 (4.8) L
  ka, estimate (RSE %): 0.919 (4.6) /h
[2]; 10 mg cipargamin, followed by piperaquine
  gametocyte development after treatment: Low gametocyte densities were detected in all subjects; also recorded: detected in all 8 subjects; also recorded: not sufficient to prevent gametocyte development
[2]; 20 days after cipargamin dosing
  gametocytemia at time of DMFA, geometric mean: 439 gametocytes/ml
[2]; after 10 mg cipargamin then 960 mg piperaquine, 8 subjects
  peak gametocytemia, geometric mean: 976 female gametocytes/ml
[2]; all subjects, 24 days postinoculation
  time of peak gametocytemia after cipargamin dosing: approximately 17 days
[3]
  transmission to mosquitoes (oocysts in midgut by qPCR): did not transmit to mosquitoes; also recorded: could not be detected; also recorded: not observed
[4]; 10 mg single dose, patients with P. falciparum malaria
  parasite clearance half-life: 4.35 h
[4]; 30 mg per day for 3 days, P. falciparum malaria patients
  parasite clearance half-life: 0.90 h
[4]; 30 mg single dose (highest tested), phase 2a
  parasite clearance half-life: 1.47 h
[4]; 3-day regimen of 30 mg daily, patients infected with P. falciparum or Plasmodium vivax, Thailand
  clearance of parasitemia in patients: demonstrated to clear parasitemia
[4]; patients with P. falciparum malaria, doses 10, 15, 20 and 30 mg
  MIC estimated in patients: 0.1 ng/mL (≈ 0.256 nM)
[5]
  parasite clearance half-life: 0.95 h
